Measured values: article PMC7870753, “Population pharmacokinetics of ATR inhibitor berzosertib in phase I studies for different cancer types” (Cancer Chemotherapy and Pharmacology, 2020)
Read-outs that look alike come from different tables or passages of the source.

Legend:
CYP3A4 = details: based on in vitro data; cited from earlier work
acute myeloid leukemia = tested on: acute myeloid leukemia; parameters: method as in PMID 29789314; details: orthotopic mouse model, in combination with gemcitabine; cited from earlier work
[1] = Population PK analysis (non-linear mixed-effect, two-compartment linear model) of berzosertib plasma concentrations, Studies 001 and 002; type: in vivo; details: for cov (Q, V2) / cov (V1, Q) / cov (V1, V2): covariance; for clearance: human, plasma, read-out: Clearance CL (converted)
Procedure: Longitudinal berzosertib plasma concentration and dosing data from the two phase I clinical trials, described above, were available for the analysis. The studies were performed in accordance with the Declaration of Helsinki; all participants provided written informed consent before blood samples were collected.
Study 001 (Online Resource Figure S1) was a phase I, open-label, first-in-human multiple ascending dose study to investigate the safety, tolerability, and PK of berzosertib alone and in combination with cytotoxic chemotherapy in patients with advanced solid tumors. The RP2D or maximum tolerated dose was determined in dose escalation parts A and B with further evaluation of safety and efficacy in expansion cohorts (parts C1–3). PK data were available from 170 patients who received twice-weekly 1-h intravenous infusions of berzosertib (18–210 mg/m^2) during a 7–14-day monotherapy lead-in. This preceded combination with chemotherapies, administered on day 1, and berzosertib administered on days 2 and 9 every 21 days following (1) gemcitabine, or cisplatin and gemcitabine (54 patients, Part A); (2) cisplatin (29 patients, Part B); (3) gemcitabine in patients with non-small cell lung cancer (NSCLC; 36 patients, Part C1); (4) cisplatin in patients with triple-negative breast cancer (TNBC) basaloid subtype and BRCA wild type (37 patients, Part C2); cisplatin or carboplatin in patients with platinum-resistant small cell lung cancer (SCLC; 14 patients, Part C3). Berzosertib was also evaluated in combination with irinotecan in a subsequent study cohort (Part B2). In Study 001, Parts A and B, rich PK sampling (pre-dose, 0.5, 1 h (end of infusion), 1.5, 2, 4, 8, 24, 48, and 72 h after the start of infusion) was performed for most patients following berzosertib monotherapy in the lead-in. Similar rich PK sampling was conducted on cycle 1 days 2 through 5 after the first dose of berzosertib in combination with other agents in study parts A and B or during dose escalation. Additional sparse samples (pre-dose and 2 h after the end of infusion) were taken during cycle 1, day 9 and cycle 2, day 2. In the expansion cohorts Parts C1, C2, and C3, limited PK sampling was performed on cycle 1 day 2: pre-dose, 0.5, 1 h (end of infusion), 1.5, 2, 4, and (optionally) 8 h after the start of infusion. Similar sampling was performed on cycle 1, day 9 on a portion of the participants before being removed by amendment.
Study 002 (Online Resource Figure S1) was a phase I, open-label, multiple ascending dose study to investigate the safety, tolerability, and PK/PD profile of berzosertib as a single agent and in combination with carboplatin or carboplatin and paclitaxel in patients with advanced solid tumors. PK data were available from 70 patients who received 1-h intravenous infusions of berzosertib (1) as a single agent once weekly (11 patients, Part A1); (2) as a single agent twice weekly (6 patients, Part A2); (3) on days 2 and 9 every 21 days following carboplatin on day 1 (23 patients, Part B1); (4) on days 2 and 9 every 21 days following carboplatin and paclitaxel on day 1 (15 patients, Part B2); (5) on days 2 and 9 following carboplatin on day 1 every 21 days in patients with advanced solid tumors and lymphoma with defects in the DDR (15 patients, Part C). In Study 002, in all study parts, rich PK sampling (pre-dose, 0.5, 1 h (end of infusion), 1.5, 2, 4, 8, 24, and 48 h after start of infusion) was performed after the first dose of berzosertib. In Part A1, additional sparse samples (pre-dose, 0.5–2 h after the end of infusion) were collected on cycle 1, day 8 and day 15. […]

pancreatic cancer cells = tested on: pancreatic cancer cells; parameters: method as in PMID 23222511, PMID 22825331; details: pancreatic cancer cells vs normal cells; cited from earlier work
[2] = cited from earlier work
[3] = tested on: acute myeloid leukemia cells; parameters: method as in PMID 29789314; details: in combination with gemcitabine; cited from earlier work
[4] = cited from earlier work; remark: listed apart in the source
p-Chk1 = tested on: p-Chk1; parameters: method as in earlier work; details: cited from earlier work
[5] = tested on: pancreatic cancer xenografts; parameters: method as in PMID 23222511, PMID 22825331; details: after radiation and gemcitabine-based chemoradiation; cited from earlier work
[6] = tested on: patient-derived non-small cell lung tumor xenografts; parameters: method as in PMID 25010037; details: multiple patient-derived non-small cell lung tumor xenografts; cited from earlier work
[7] = full covariate model, typical patient, intravenous infusion

SMILES: CNCc1ccc(-c2cc(-c3nc(-c4ccc(S(=O)(=O)C(C)C)cc4)cnc3N)on2)cc1 [berzosertib, 5-(4-(Isopropylsulfonyl)phenyl)-3-(3-(4-((methylamino)methyl)phenyl)isoxazol-5-yl)pyrazin-2-amine]
- elimination via metabolism, enzyme (CYP3A4): mainly mediated by CYP3A4
- survival (acute myeloid leukemia): increased survival
- Additive residual error ([1]; base model): 1.9 ng/mL
- Central volume V1 ([1]; base model): 111 L
- Peripheral volume V2 ([1]; base model): 861 L
- Proportional residual error [sd] ([1]; base model): 0.22
- cov (Q, V2) ([1]; base model): 0.089
- cov (V1, Q) ([1]; base model): 0.26
- cov (V1, V2) ([1]; base model): 0.093
- IIV on V1 [var] ([1]; base model, variance): 0.38
- IIV on Q [var] ([1]; base model, variance, first line so headed (r14)): 0.24
- IIV on Q [var] ([1]; base model, variance, second line so headed (r16)): 0.071
- PK interaction with evaluated chemo-combinations ([1]; berzosertib with gemcitabine, cisplatin, carboplatin, paclitaxel combinations): no evidence of a clinically significant PK interaction
- V1 lower in female patients than in male patients ([1]; female vs male patients): 15.8%
- Additive residual error ([1]; full covariate model): 1.73 ng/mL
- Proportional residual error [sd] ([1]; full covariate model): 0.22
- cov (Q, V2) ([1]; full covariate model): 0.090
- cov (V1, Q) ([1]; full covariate model): 0.25
- cov (V1, V2) ([1]; full covariate model): 0.081
- Central volume V1 [1, 7]: 118 L
- Peripheral volume V2 [1, 7]: 1030 L
- IIV on Q [var] ([1]; full covariate model, variance): 0.24
- IIV on V1 [var] ([1]; full covariate model, variance): 0.32
- IIV on V2 [var] ([1]; full covariate model, variance): 0.047
- increase for V1 ([1]; high extreme of albumin): 18%
- median increase in CL ([1]; high extreme of body weight): 12%
- median increase in V1 ([1]; high extremes of tumor size at baseline): 24%
- clearance ([1]; intravenous, base model): 933 mL/min
- clearance ([1]; full covariate model, typical patient, intravenous infusion, 240 patients, 18–480 mg/m^2): 1080 mL/min
- median decrease for V2 ([1]; low extreme of age): 16.7%
- median decrease for V1 ([1]; low extreme of albumin): 28.6%
- decrease in CL ([1]; low extreme of body weight): 9%
- higher CL in patients with TNBC ([1]; patients with TNBC vs female patients with other tumor types): 42%
- sensitization to radiation and/or gemcitabine (pancreatic cancer cells): selectively sensitized pancreatic cancer cells but not normal cells
- PK linearity over the dose range ([2]; 18–480 mg/m^2): linear
- renal excretion ([2]; Study 001): 5–6%
- terminal half-life ([2]; patients, intravenous, 18–480 mg/m^2): approximately 17 h
- sensitization of cells [3]: acutely sensitized acute myeloid leukemia cells
- recommended phase II dose (RP2D) ([4]; days 2 and 9 following 75 mg/m^2 cisplatin (day 1)): 140 mg/m^2
- recommended phase II dose (RP2D) ([4]; days 2 and 9 following 1000 mg/m^2 gemcitabine (days 1 and 8)): 210 mg/m^2
- recommended phase II dose (RP2D) ([4]; days 2 and 9 following carboplatin AUC 5 (day 1)): 90 mg/m^2
- total plasma concentration needed to reach 50% of maximal inhibition (IC50) of p-Chk1 in humans (p-Chk1; estimated from multiple preclinical tumor models with carboplatin, irinotecan, cisplatin or gemcitabine, adjusted for species differences in plasma protein binding): approximately 110 ng/mL
- inhibition of p-Chk1 (p-Chk1; tumor-bearing mice, in combination with various chemotherapies): dose-dependent inhibition of p-Chk1
- growth delay of xenografts [5]: markedly prolonged growth delay
- normal cell or tissue toxicity [5]: without augmenting normal cell or tissue toxicity
- efficacy in combination with cisplatin [6]: dramatically enhanced the efficacy of cisplatin
